{"source": "patent US6458767B1", "about": "“Use of peptides inhibitory for thrombospondin dependent TGF-β activation in the treatment of kidney disease” (The UAB Research Foundation, priority 1994, dated 2002)", "format_in_all_cases": "in vivo, rat", "key": {"[1]": {"system": "rats with anti-Thy1 disease", "assay": "Glomerular immunostaining score for TGF-β1, TGF-β2, TGF-βRI, TGF-βRII and TSP1 in the anti-Thy1 model", "text": "(§1) Experimental design. Experimental mesangial proliferative glomerulonephritis was induced using the monoclonal mouse anti-Thy1 antibody OX-7. Peptides were continuously infused intravenously (i.v.) via jugular vein using osmotic minipumps starting sixteen hours after disease induction. The effects of the hexapeptide AAWSHW (SEQ ID NO:22) (that interferes with the TSP1-mature TGF-β interaction) or the LSKL-peptide (SEQ ID NO:21) (that blocks the TSP1-LAP interaction) were compared to a control peptide (SLLK) in the anti-Thy1 model. Tissues from different time points (days three, five, eight) of this experiment were analyzed in regard to mesangiolysis, macrophage-influx, MC-proliferation, MC-activation, microaneurysm and matrix formation, GEN proliferation, TSP1, TGF-β1 and 2, as well as TGF-βRI and RII. Functional parameters such as blood pressure, proteinuria, and creatinine clearance were also determined. On day eight, glomerular secretion of active TGF-β was determined in individual animals by incubating isolated glomeruli for twenty-four hours in DMEM and measuring TGF-β activity in glomerular supernatants using the NRK-bioassay.\n(§2) Animal model Experimental mesangial proliferative glomerulonephritis (anti-Thy1 model) was induced in Sprague Dawley rats (180-200 g; Charles River, Sulzfeld, Germany) by a single injection of 1 mg/kg of the mouse monoclonal anti-Thy1 antibody OX-7 (European Collection of Animal Cell Culture, Salisbury, England). In this animal model, complete anti-Thy1 antibody binding occurs within an hour (Johnson et al. (1991) Am. J. Pathol. 138 (2), 313-21). To avoid potential interference of the LAP-peptides with anti-Thy1 antibody binding and subsequent mesangiolysis, the peptide treatment was started sixteen hours after disease induction, when binding of the anti-Thy1 antibody to the mesangium and subsequent mesangiolysis had already occurred. The peptides used in this study were synthesized, purified, and analyzed as described elsewhere (Crawford et al. (1998) Cell 93, 1159-1170).\n(§3) Renal biopsies as described previously (Hugo et al. (1997) J. Clin. Invest. 100, 786-794) were performed on days three and five, and the experiment was finished on day eight. To determine DNA incorporation into proliferating cells, each animal was injected intravenously with BrdU (50 mg/kg bw) ninety minutes before the second survival biopsy was taken on day five (peak of MC proliferation). Renal biopsies were fixed in methyl Carnoy's, 10% formalin and/or OCT and snap frozen. A twenty-four hour urine collection for measurement of protein and creatinine was done from day seven to eight, when maximal proteinuria occurs in this model (unpublished observation). Blood pressure measurements were done twice before and twice after disease induction. In renal biopsies, the frequency of glomerular microaneurysms, the number of infiltrating macrophages, the number of proliferating MC, the expression of the contractile protein α-sm actin as a marker of MC-activation, and the expression of TGF-β1, TGF-β2, TGF-βRI, TGF-βRII, TSP1, as well as of extracellular matrix proteins such as collagen I, collagen IV and fibronectin were determined. For TGF-β activity measurements in individual animals on day eight, glomeruli were isolated by differential sieving (Johnson et al. (1991) Am. J. Pathol. 138 (2), 313-21) and counted using five aliquots. Glomerular isolates were discarded if purity was less than 95%. 8000 glomeruli/ml were incubated in DMEM at 37° C. After a twenty-four hour incubation period, glomerular supernatants were stored by −70° C. until TGF-β activity measurements were done.\n(§4) Peptide infusion. All peptides (at a concentration of 3.5 mg/ml) were continuously infused for seven days via a catheter in the right jugular vein using osmotic minipumps (Alzet Corp./Charles River, Sulzfeld, Germany). […]"}, "[2]": {"system": "rats with anti-Thy1 disease", "assay": "Glomerular extracellular matrix formation (Masson's Trichrome, collagen I, collagen IV, fibronectin stains) in the anti-Thy1 model", "text": "as §1, §2, §3, §4"}, "[3]": {"system": "rats with anti-Thy1 disease", "assay": "Glomerular MC-proliferation, MC-activation and macrophage influx in the anti-Thy1 model", "text": "as §1, §2, §3, §4"}, "[4]": {"system": "rats with anti-Thy1 disease", "assay": "Functional parameters (proteinuria, creatinine clearance, blood urea nitrogen, systolic blood pressure) in the anti-Thy1 model", "text": "as §1, §2, §3, §4"}, "[5]": {"system": "rats with anti-Thy1 disease", "assay": "Mesangiolysis, microaneurysm formation and GEN-proliferation in the anti-Thy1 model", "text": "as §1, §2, §3, §4"}, "[6]": {"system": "TGF-β", "assay": "Glomerular secretion of active TGF-β (NRK-bioassay of supernatants of isolated glomeruli) in anti-Thy1 rats", "settings": "day 8 glomeruli, 24 h supernatant, NRK-bioassay; continuous i.v. peptide infusion", "text": "as §1, §2\nas §3, with “After a twenty-four hour incubation period, glomerular supernatants were stored by −70° C. until TGF-β activity measurements were done.” left out"}}, "data": [{"substance": "control/SLLK: control peptide SLLK (SEQ ID NO:47), group 1 [reference compound]", "values": [{"measurement": "TGF-β1 (score 0-4)", "setting": "[1]; day 3", "value": "0.2 ± 0.2", "unit": "score 0-4"}, {"measurement": "TGF-β2 (score 0-4)", "setting": "[1]; day 3", "value": "0.2 ± 0.1", "unit": "score 0-4"}, {"measurement": "TGF-βRI (score 0-4)", "setting": "[1]; day 3", "value": "0.4 ± 0.2", "unit": "score 0-4"}, {"measurement": "TGF-βRII (score 0-4)", "setting": "[1]; day 3", "value": "0.4 ± 0.3", "unit": "score 0-4"}, {"measurement": "TSP I (score 0-4)", "setting": "[1]; day 3", "value": "0.2 ± 0.2", "unit": "score 0-4"}, {"measurement": "TGF-β1 (score 0-4)", "setting": "[1]; day 5", "value": "2.6 ± 0.6", "unit": "score 0-4"}, {"measurement": "TGF-β2 (score 0-4)", "setting": "[1]; day 5", "value": "1.6 ± 0.4", "unit": "score 0-4"}, {"measurement": "TGF-βRI (score 0-4)", "setting": "[1]; day 5", "value": "1.9 ± 0.5", "unit": "score 0-4"}, {"measurement": "TGF-βRII (score 0-4)", "setting": "[1]; day 5", "value": "1.9 ± 0.5", "unit": "score 0-4"}, {"measurement": "TSP I (score 0-4)", "setting": "[1]; day 5", "value": "2.0 ± 0.6", "unit": "score 0-4"}, {"measurement": "TGF-β1 (score 0-4)", "setting": "[1]; day 8", "value": "1.5 ± 0.8", "unit": "score 0-4"}, {"measurement": "TGF-β2 (score 0-4)", "setting": "[1]; day 8", "value": "1.3 ± 0.8", "unit": "score 0-4"}, {"measurement": "TGF-βRI (score 0-4)", "setting": "[1]; day 8", "value": "1.8 ± 0.9", "unit": "score 0-4"}, {"measurement": "TGF-βRII (score 0-4)", "setting": "[1]; day 8", "value": "1.3 ± 0.8", "unit": "score 0-4"}, {"measurement": "TSP I (score 0-4)", "setting": "[1]; day 8", "value": "0.6 ± 0.3", "unit": "score 0-4"}, {"measurement": "Matrix Collagen 1 (score 0-4)", "setting": "[2]; day 3", "value": "0.1 ± 0.1", "unit": "score 0-4"}, {"measurement": "Matrix Collagen IV (score 0-4)", "setting": "[2]; day 3", "value": "1.2 ± 0.4", "unit": "score 0-4"}, {"measurement": "Matrix Fibronectin (score 0-4)", "setting": "[2]; day 3", "value": "1.5 ± 0.8", "unit": "score 0-4"}, {"measurement": "Matrix Trichrome (score 0-3)", "setting": "[2]; day 3", "value": "0.7 ± 0.3", "unit": "score 0-3"}, {"measurement": "Matrix Collagen 1 (score 0-4)", "setting": "[2]; day 5", "value": "2.3 ± 0.5", "unit": "score 0-4"}, {"measurement": "Matrix Collagen IV (score 0-4)", "setting": "[2]; day 5", "value": "3.3 ± 0.4", "unit": "score 0-4"}, {"measurement": "Matrix Fibronectin (score 0-4)", "setting": "[2]; day 5", "value": "3.2 ± 0.4", "unit": "score 0-4"}, {"measurement": "Matrix Trichrome (score 0-3)", "setting": "[2]; day 5", "value": "1.5 ± 0.2", "unit": "score 0-3"}, {"measurement": "Matrix Collagen 1 (score 0-4)", "setting": "[2]; day 8", "value": "2.0 ± 0.5", "unit": "score 0-4"}, {"measurement": "Matrix Collagen IV (score 0-4)", "setting": "[2]; day 8", "value": "2.6 ± 0.6", "unit": "score 0-4"}, {"measurement": "Matrix Fibronectin (score 0-4)", "setting": "[2]; day 8", "value": "2.3 ± 0.9", "unit": "score 0-4"}, {"measurement": "Matrix Trichrome (score 0-3)", "setting": "[2]; day 8", "value": "2.3 ± 0.4", "unit": "score 0-3"}, {"measurement": "MC-activation α-sm actin (score 0-4)", "setting": "[3]; day 3", "value": "0.8 ± 0.4", "unit": "score 0-4"}, {"measurement": "MC-proliferation (OX-7 + /PCNA + cells/glomerulus)", "setting": "[3]; day 3", "value": "3.6 ± 0.7", "unit": "cells/glomerulus"}, {"measurement": "Macrophages (ED-1 + cells/glomerulus)", "setting": "[3]; day 3", "value": "4.5 ± 1.6", "unit": "cells/glomerulus"}, {"measurement": "MC-activation α-sm actin (score 0-4)", "setting": "[3]; day 5", "value": "2.9 ± 0.3", "unit": "score 0-4"}, {"measurement": "MC-proliferation (OX-7 + /BrdU + cells/glomerulus)", "setting": "[3]; day 5", "value": "4.7 ± 0.8", "unit": "cells/glomerulus"}, {"measurement": "MC-proliferation (OX-7 + /PCNA + cells/glomerulus)", "setting": "[3]; day 5", "value": "9.1 ± 1.5", "unit": "cells/glomerulus"}, {"measurement": "Macrophages (ED-1 + cells/glomerulus)", "setting": "[3]; day 5", "value": "1.9 ± 0.5", "unit": "cells/glomerulus"}, {"measurement": "MC-activation α-sm actin (score 0-4)", "setting": "[3]; day 8", "value": "2.9 ± 0.5", "unit": "score 0-4"}, {"measurement": "MC-proliferation (OX-7 + /PCNA + cells/glomerulus)", "setting": "[3]; day 8", "value": "4.2 ± 0.5", "unit": "cells/glomerulus"}, {"measurement": "Macrophages (ED-1 + cells/glomerulus)", "setting": "[3]; day 8", "value": "1.5 ± 0.5", "unit": "cells/glomerulus"}, {"measurement": "Proteinuria (mg/24 hours)", "setting": "[4]; day 8 (urine collection day seven to eight)", "value": "83 ± 40", "unit": "mg/24 hours"}, {"measurement": "twenty-four hour proteinuria", "setting": "[4]; days seven to eight", "value": "83±40", "unit": "mg/twenty-four hours"}, {"measurement": "Blood urea nitrogen", "setting": "[4]; rat, in vivo", "value": "33.2 ± 12.7", "unit": "mg/dL"}, {"measurement": "Glomerular Microaneurysm (in percent)", "setting": "[5]; day 3", "value": "34.0 ± 30.1", "unit": "%"}, {"measurement": "Glomerular Microaneurysm (in percent)", "setting": "[5]; day 5", "value": "20.6 ± 22.7", "unit": "%"}, {"measurement": "Glomerular Microaneurysm (in percent)", "setting": "[5]; day 8", "value": "6.0 ± 5.9", "unit": "%"}, {"measurement": "Glomerular GEN-proliferation (double staining for RECA-1 and PCNA)", "setting": "[5]; day three", "value": "2.2 cells/glomerular cross-section"}, {"measurement": "mesangiolysis scores", "setting": "[5]; day three, scale 0-IV", "value": "2.7±0.5"}, {"measurement": "Active TGF-β (colonies > 62 um)", "setting": "[6]", "value": "380 ± 60", "unit": "colonies > 62 um"}]}]}
